# “Also recorded” adds a separate entry of the source.
# Assays:
# [1] = system: S. cerevisiae (BY4741 his3Δ::KanMX); test: Multivariate morphological analysis (CalMorph); assay type: cell-based, Saccharomyces cerevisiae
# Procedure: Cells of budding yeast S. cerevisiae (BY4741 his3Δ::KanMX; hereafter, his3Δ) were cultured in 2 mL 1% Bacto yeast extract (BD Biosciences), 2% Bacto peptone (BD Biosciences), and 2% glucose (YPD) with 0, 25, 50, 75, 100, or 125 μg/mL poacic acid or a DMSO control at 25° C. for 16 h until the early log phase. The maximum concentration of the drug (125 μg/mL) was determined based on the growth inhibition rates (10%). Cell fixation, staining, and observation were performed (n=5) as described previously (Ohya et al. 2005). Images of cell shape, actin, and nuclear DNA were analyzed using the image processing software CalMorph (version 1.2), which extracted a total of 501 morphological quantitative values from at least 200 individual cells in each experiment (Ohya et al. 2005). Images were processed using Photoshop CS2 (Adobe Systems) for illustrative purposes.
# To assess the morphological similarity between the cells treated with poacic acid and nonessential deletion mutants or cells treated with other cell wall-affecting drugs, their morphological profiles were compared as described previously (Ohnuki et al. 2010). To identify functional gene clusters, the most significant similar mutants (43 genes, P<0.01 after Bonferroni correction, t test) were selected as a query for GO term analysis (GO term finder in the Saccharomyces genome database).
# To extract independent and characteristic features of morphology induced by poacic acid, a two-step principal component analysis was performed as described previously (Ohnuki et al. 2012). To compare phenotypic noise in the yeast population (poacic acid vs. DMSO), the noise score was calculated as described previously (Yvert et al. 2013).
# β-1,3-glucan synthesis = test: In vivo β-1,3-glucan synthesis (14C-glucose incorporation); assay type: cell-based, Saccharomyces cerevisiae; conditions: 250 μg/mL, 2 h, 25° C.
# Procedure: Inhibition of in vivo β-1,3-glucan synthesis was measured as described previously with slight modification (n=3) (Abe et al. 2003). Yeast cells (his3Δ) were grown in YPD to early log phase at 25° C. The cultured cells were diluted to 1×10^7 cells per 1 mL with 1 mL of YPD medium containing one-tenth the glucose containing 23.125 kBq [14C] glucose (ARC0122; American Radiolabeled Chemicals) and test compounds [250 μg/mL for poacic acid, 4 μg/mL for echinocandin B, 30 mM for hydroxyurea (negative control), or 0.4% (vol/vol) DMSO as a solvent control]. The cells were radiolabeled by culturing at 25° C. for 2 h. The labeled cells were harvested and incubated with 1 N NaOH at 80° C. for 30 min. The insoluble pellets were resuspended in 10 mM Tris·HCl, pH 7.5, containing 5 mg/mL zymolyase 100T (Seikagaku) and incubated at 37° C. for 18 h. […] The flow-through fraction was mixed with scintillation mixture (Ultima Gold; PerkinElmer), and radioactivity was measured by a scintillation counter (LSC-6100; Aloka). The differences in the incorporation rates in samples were normalized by ΔOD600 measured before and after the labeling period.
# bck1Δ mutant = test: Sensitivity of individual bck1Δ mutant; assay type: cell-based, Saccharomyces cerevisiae; conditions: bck1Δ mutant vs control strain
# Procedure: The diferulate compounds tested were synthesized as described by Lu et al. (2012) and resuspended in DMSO. Caspofungin, nikkomycin Z, and MMS were purchased from Sigma-Aldrich. Echinocandin B was a gift from O. Kondo (Chugai Pharmaceuticals, Tokyo, Japan). Micafungin was provided by Astellas Pharma. Diferulates were initially screened at a concentration of 1 mg/mL to determine bioactivity. Cells of Saccharomyces cerevisiae (MATα pdr1Δ::natMX pdr3Δ::KLURA3 snq2Δ::KI.LEU2 can1Δ::STE2pr-Sp_his5 lyp1Δ his3Δ1 leu2Δ0 ura3Δ0 met15Δ0), referred to as the control strain, were grown in 200-μL cultures at 30° C. in YPD with a drug or DMSO control. Plates were read on a TECAN M1000 over a 48-h growth period. The specific growth rate was calculated using GCAT analysis software (https://gcat3-pub.glbrc.org/) (Sato et al. 2014). When presented, IC50 values for growth rate inhibition were calculated from triplicate eight-point dose curves and SigmaPlot 12.0. When presented, error bars are means±SEs of at least three replicates.
# [2] = system: S. sclerotiorum strain 1980; test: Growth inhibition of S. sclerotiorum in liquid and agar culture; assay type: cell-based, Sclerotinia sclerotiorum; conditions: 0, 125, 250, 500 μg/mL, 48 h, P<0.01
# Procedure: To test inhibition in liquid culture, a dose curve of 0, 125, 250, and 500 μg/mL poacic acid in 100 mL potato dextrose broth (n=3) was used. Cultures of S. sclerotiorum strain 1980 were inoculated with 100 μL homogenized mycelia and grown at 25° C. for 48 h. The mycelia in the liquid media were dried and weighed. The growth inhibition of poacic acid on solid agar cultures (potato dextrose agar) was assessed by generating replicate plates (n=3) containing 0, 125, 250, and 500 μg/mL poacic acid. Plates were inoculated with an actively growing plug of S. sclerotiorum and grown at 25° C. The mycelial radial growth after 48 h was measured Inhibition of S. sclerotiorum in planta was tested by inoculating detached soybean leaves of the commercial variety Williams 82 with an agar plug of actively growing S. sclerotiorum mycelia. Leaves were treated one time before inoculation with either an aerosol spray of water with DMSO (control) or a 500 μg/mL solution of poacic acid. Leaves were incubated in a moist environment, and lesion development was monitored up to 120 h postinoculation. […] The growth inhibition of poacic acid was assessed at 0, 500, 1,000, and 1,500 μg/mL in replicate plates (n=3). […] Colony diameter was monitored for each treatment in a time-course experiment. […]
smiles,measurement,setting,value
"COc1cc(/C=C/c2cc(/C=C/C(=O)O)cc(OC)c2O)ccc1O [poacic acid, (E)-4-Hydroxy-3-{2-[(E)-4-hydroxy-3-methoxystyryl]}-5-methoxycinnamic acid]",bud neck size,"[1]; 0-125 μg/mL, 16 h",dose-dependent increase in bud neck size
same,heterogeneity of cell morphology,"[1]; 0-125 μg/mL, 16 h",heterogeneous morphologies
same,inhibition at 125 µg/mL,"[1]; Saccharomyces cerevisiae, read-out: growth inhibition rates",10%
same,morphological correlation with other cell wall-affecting compounds,"[1]; vs micafungin, echinocandin B and other cell wall-affecting compounds",lower morphological correlations
same,"14C-glucose incorporation into the β-1,3-glucan layer","β-1,3-glucan synthesis",significantly less 14C-glucose incorporation
same,reduction in the IC50 compared with the control strain (WT),bck1Δ mutant,six-fold reduction; also recorded: six-fold more sensitive
same,colony radial growth on agar plates,[2],dose-dependent decrease
same,fungal mass (mycelia weight) in liquid culture,[2],dose-dependent decrease
